Test: solubility of 2-amino-5-methyl-1,3,4-oxadiazole in water and aqueous NaCl solution (salting-out effect)
Assay type: physicochemical

solubility in a 10 mass % aqueous NaCl solution (10 mass % aqueous NaCl solution (30° C. as in the same sentence)): 7.9 % by mass
solubility in a 26.4 mass % aqueous NaCl solution (30° C.): 3.5 % by mass
solubility in a 26.4 mass % aqueous NaCl solution (−5° C.): 1.1 % by mass
solubility in water (water, 30° C.): 13.9 % by mass
Compound: Cc1nnc(N)o1 [2-amino-5-methyl-1,3,4-oxadiazole]

— patent US20260209195A1, “METHOD FOR PRODUCING 2-AMINO-5-SUBSTITUTED-1,3,4-OXADIAZOLE” (MITSUBISHI GAS CHEMICAL NEXT COMPANY, INC., priority 2022, published 2026)
